# Measured values: patent publication US20260132129A1 (Genesis Therapeutics, Inc., priority 2022, published 2026)
# Target: T1, PI3Kα H1047R (T47D cells) (Homo sapiens, UniProt P42336, H1047R)
# T1 construct: endogenous in cells; host or cells: T47D cells
# Experiment: PI3Kα cellular assay: pAKT HTRF in T47D cells after EGF stimulation
# Assay type: cell-based
# Conditions: for IC50: T47D cells (PI3Kα H1047R), pAKT S473 HTRF
# How it was run: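 T47D cells (PIK3CA H1047R) serum-starved 16 h, then treated 1 h at 37 °C with compound (10,000 nM top, 3-fold steps to 0.5 nM). After 10 min stimulation with 20 ng/mL EGF, cells were lysed and pAKT measured by HTRF.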
# [1] = selectivity of T47D (H1047R) over SKBR3 (WT) pAKT IC50
# [2] = 1 hr compound, 20 ng/ml EGF 10 min
# [3] = selectivity T47D (H1047R) over SKBR3 (WT), pAKT HTRF
# T1 sequence (P42336 whole entry H1047R): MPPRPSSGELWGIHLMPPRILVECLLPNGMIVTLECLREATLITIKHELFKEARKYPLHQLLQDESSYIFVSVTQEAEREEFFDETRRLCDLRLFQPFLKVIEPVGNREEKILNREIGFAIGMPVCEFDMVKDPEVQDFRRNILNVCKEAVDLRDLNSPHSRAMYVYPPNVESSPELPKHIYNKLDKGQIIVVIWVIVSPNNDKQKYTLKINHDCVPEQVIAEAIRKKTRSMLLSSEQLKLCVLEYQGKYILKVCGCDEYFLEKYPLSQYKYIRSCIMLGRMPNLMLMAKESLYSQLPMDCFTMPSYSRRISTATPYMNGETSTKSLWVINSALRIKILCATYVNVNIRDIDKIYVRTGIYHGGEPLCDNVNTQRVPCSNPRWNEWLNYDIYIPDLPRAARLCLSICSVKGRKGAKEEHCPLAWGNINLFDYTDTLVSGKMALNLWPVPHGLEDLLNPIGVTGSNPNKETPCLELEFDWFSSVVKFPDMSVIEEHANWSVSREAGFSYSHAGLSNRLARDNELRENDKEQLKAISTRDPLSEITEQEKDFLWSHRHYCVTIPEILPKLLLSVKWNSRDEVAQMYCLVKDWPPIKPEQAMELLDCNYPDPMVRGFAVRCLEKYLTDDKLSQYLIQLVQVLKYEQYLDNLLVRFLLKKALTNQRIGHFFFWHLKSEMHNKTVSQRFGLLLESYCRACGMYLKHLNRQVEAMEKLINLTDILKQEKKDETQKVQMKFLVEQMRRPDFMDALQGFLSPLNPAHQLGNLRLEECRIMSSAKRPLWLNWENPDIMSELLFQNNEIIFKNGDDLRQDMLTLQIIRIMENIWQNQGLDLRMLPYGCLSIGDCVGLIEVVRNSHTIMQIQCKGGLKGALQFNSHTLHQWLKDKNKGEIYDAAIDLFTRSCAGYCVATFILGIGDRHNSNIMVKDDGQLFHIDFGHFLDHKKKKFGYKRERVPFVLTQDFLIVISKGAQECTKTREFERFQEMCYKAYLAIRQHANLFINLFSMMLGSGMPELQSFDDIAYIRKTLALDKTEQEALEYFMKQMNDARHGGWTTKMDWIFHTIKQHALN
# T1 sequence (P27986 whole entry partner): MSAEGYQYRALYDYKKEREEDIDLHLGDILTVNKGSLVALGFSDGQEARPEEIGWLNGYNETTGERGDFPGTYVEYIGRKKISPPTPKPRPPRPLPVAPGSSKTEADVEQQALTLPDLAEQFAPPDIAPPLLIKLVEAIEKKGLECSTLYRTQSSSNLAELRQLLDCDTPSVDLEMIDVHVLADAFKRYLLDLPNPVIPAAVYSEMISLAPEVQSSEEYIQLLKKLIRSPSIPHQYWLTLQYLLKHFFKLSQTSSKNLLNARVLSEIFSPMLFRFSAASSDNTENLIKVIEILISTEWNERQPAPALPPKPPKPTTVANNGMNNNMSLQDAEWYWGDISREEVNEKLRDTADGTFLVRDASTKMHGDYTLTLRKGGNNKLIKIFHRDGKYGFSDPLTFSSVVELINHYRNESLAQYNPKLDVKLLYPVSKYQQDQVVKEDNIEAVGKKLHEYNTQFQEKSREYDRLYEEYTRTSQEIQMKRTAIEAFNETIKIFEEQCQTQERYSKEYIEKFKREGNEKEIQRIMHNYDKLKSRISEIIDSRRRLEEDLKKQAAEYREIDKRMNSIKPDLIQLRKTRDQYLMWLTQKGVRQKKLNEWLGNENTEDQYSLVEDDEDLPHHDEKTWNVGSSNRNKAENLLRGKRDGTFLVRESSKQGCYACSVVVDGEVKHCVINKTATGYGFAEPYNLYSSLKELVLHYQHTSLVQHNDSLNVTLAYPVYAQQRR
SMILES,IC50 (EGF stimulation),T47D pAKT S473 HTRF IC50 (H1047R): T47D (H1047R) selectivity over SKBR3 (WT) [1],IC50 [2],T47D pAKT S473 HTRF IC50 (H1047R): T47D (H1047R) selectivity over SKBR3 (WT) [3]
Cc1cc([C@@H](C)Nc2ccccc2C(=O)O)c2nc(N3CCC(C)(C)CC3)cc(=O)n2c1 [Compound 727],> 2000 nM,C (C denotes ≤5-fold),,
Cc1cc([C@@H](C)N(C)c2ccccc2C(=O)O)c2nc(N3CCOCC3)cc(=O)n2c1 [Compound 309],,,> 2000 nM,C (C denotes ≤5-fold)
Cc1cc([C@H](C)Nc2ccccc2C(=O)O)c2nc(-c3cnc4c(c3)c(C)cn4C)c(C)c(=O)n2c1 [Compound 1051],,C (C denotes ≤5-fold),,
Cc1cc(C(C)Nc2ccccc2C(=O)O)c2nc(N3CCC(NS(C)(=O)=O)CC3)cc(=O)n2c1 (centres unmarked) [Compound 434],,,,C (C denotes ≤5-fold)
Cc1cc([C@@H](C)Nc2ccccc2C(=O)O)c2nc(-c3ccccc3)cc(=O)n2c1 [Compound 628],,,> 2000 nM,C (C denotes ≤5-fold)
CONC(=O)c1ccc(-c2cc(=O)n3cc(C)cc(C(C)NC4=CC=CCC4C(=O)O)c3n2)c(OC)c1 (centres unmarked) [Compound 299],,,> 2000 nM,C (C denotes ≤5-fold)
Cc1cc([C@H](C)Nc2ccccc2C(=O)O)c2nc(-c3ccc(CNc4[nH]cc(C)c4C#N)c(C)c3)c(C)c(=O)n2c1 [Compound 1307],,,,B (B denotes 20-fold≥value>5-fold)
Cc1cc([C@@H](C)Nc2cc[nH]c2-c2ccnnc2)c2nc(N3Cc4ccccc4C3)c(C)c(=O)n2c1 [Compound 1014],,C (C denotes ≤5-fold),,
Cc1cc([C@H](C)Nc2ccccc2C(=O)O)c2nc(-c3ccnc(C)c3)c(C)c(=O)n2c1 [Compound 1068],> 2000 nM,,,C (C denotes ≤5-fold)
Cc1cc([C@H](C)Nc2cccc(F)c2C(=O)O)c2nc(N3CCOCC3)cc(=O)n2c1 [Compound 331],,,> 2000 nM,C (C denotes ≤5-fold)
Cc1cc([C@H](C)Nc2ccccc2C(=O)O)c2nc(-c3cc4c(cc3C)CC(N)=N4)cc(=O)n2c1 [Compound 811],500 to 2000 nM,B (B denotes 20-fold≥value>5-fold),,
Cc1cc([C@H](C)Nc2ccccc2C(=O)O)c2cc(-c3ccncn3)cc(=O)n2c1 [Compound 482],,,500 to 2000 nM,B (B denotes 20-fold≥value>5-fold)
Cc1cc([C@H](C)Nc2ccccc2C(=O)O)c2nc(-c3ccc4[nH]cnc4c3)cc(=O)n2c1 [Compound 517],,,> 2000 nM,C (C denotes ≤5-fold)
Cc1cc([C@H](C)Nc2ccccc2C(=O)O)c2nc(-c3cc(C)c(F)c(C)c3)cc(=O)n2c1 [Compound 663],> 2000 nM,C (C denotes ≤5-fold),,
Cc1cc(C(C)Nc2ccccc2C(=O)O)c2nc(N3CCN(C(C)(C)C(N)=O)CC3)cc(=O)n2c1 (centres unmarked) [Compound 581],,,,C (C denotes ≤5-fold)
CC(=O)NS(=O)(=O)c1ccccc1N[C@@H](C)c1cc(C)cn2c(=O)c(C)c(-c3ccc4c(c3)CC(F)(F)C4)nc12 [Compound 1040],,C (C denotes ≤5-fold),,
Cc1cc([C@H](C)Nc2cc(F)cc(F)c2)c2nc(N3CCOCC3)cc(=O)n2c1 [Compound 264],,,> 2000 nM,C (C denotes ≤5-fold)
Cc1cc([C@H](C)Nc2ccccc2S(N)(=O)=O)c2nc(-c3ccc(C4CCOCC4)nc3)c(C)c(=O)n2c1 [Compound 1295],< 100 nM,,,A (A denotes >20-fold)
Cc1cc([C@@H](C)Nc2ccccc2C(=O)O)c2nc(C3CCOCC3)cc(=O)n2c1 [Compound 316],,,> 2000 nM,C (C denotes ≤5-fold)
